Results published in patent publication US11498909B2, “Compound acting as antibiotics” (KBP BIOSCIENCES CO., LTD., priority 2018, dated 2022).
Values after ≈ are worked out from the molar mass of the structure shown. Read-outs that look alike come from different tables or passages of the source.

Tests used:
Klebsiella pneumoniae = test: In vitro antibacterial activity, agar dilution MIC (Experiment 1); format: cell-based
Protocol: (§1) Tested strains: all the clinically separated strains below were purchased from public facilities.
(§2) Escherichia coli ATCC25922, Pseudomonas aeruginosa ATCC27853, Klebsiella pneumoniae ATCC700603, and the like.
(§3) Tested Samples: Imipenem, Ceftazidime: Commercial Products, the Following Experiments were Carried Out According to the Content of an Effective Ingredient in Each Commercial Product;
(§4) The compounds of the present invention, their chemical names, and preparation methods are shown in the preparation example of each compound.
(§5) Experiment method: Agar dilution method, refer to National Committee for Clinical Laboratory Standards. 2006. Methods for Dilution Antimicrobial Susceptibility Tests for Bacteria That Grow Aerobically; Approved Standard—Seventh Edition M7-A7, Vol 26, No. 2, 2006, to determine the MIC of the compound. MIC represents the minimum inhibitory concentration.

Pseudomonas aeruginosa [1] = test: as above; format: cell-based
Protocol: as §1, §2, §3, §4, §5

Escherichia coli = test: as above; format: cell-based
Protocol: as §1, §2, §3, §4, §5

Pseudomonas aeruginosa [2] = test: In vitro antibacterial activity against Pseudomonas aeruginosa, agar dilution MIC (Experiment 3); format: cell-based; settings: CLSI 2018 (Table 5)
Protocol: Tested samples: the compound of the present invention, prepared according to the preparation example method; Compound C, prepared with reference to WO2008154642A2.
With reference to the steps of the agar dilution method in the 2018 USA Clinical and Laboratory Standards Institute (CLSI), the determination of the minimum inhibitory concentration (MIC) of the compounds against the strain(s) was carried out.
Preparation of drug-containing plate: (1) a drug solution with the highest concentration was prepared, and the highest concentration of each compound was 160 μg/mL. (2) For each compound, the drug solution with the highest concentration was subjected to the double dilution, and a total of 10 concentration gradients was obtained; for each of dilution gradient, 2 mL of the drug solution was added to 18 mL MH agar solution which had been autoclaved at 121° C. and cooled to about 50° C.; the mixture was uniformly mixed, left stand and cooled to give a drug-containing plate; and the plate was labeled. The final concentrations of the compound were respectively 16, 8, 4, 2, 1, 0.5, 0.25, 0.125, 0.06 and 0.03 μg/mL.
Inoculum preparation and inoculation: A fresh single colony was selected, diluted with 0.9% sodium chloride injection, adjusted to 0.5 #McFarland turbidity, and then diluted 10 times with 0.9% sodium chloride injection, then inoculated with an automatic multi-point inoculation instrument to the labeled drug-containing plate.

[3] = Pharmacokinetics (PK) determination in SD rats (Experiment 4); format: in vivo; settings: plasma; for Cl_obs / Vz_obs / t1/2z / λ_z: IV 2 mg/kg; for AUC(0-t) / AUC(0-inf): Sprague-Dawley (SD), rat, iv; for AUC(0-inf): read-out: AUCINF_obs
Protocol: The compound of the present invention, self-prepared and dissolved in a suitable solvent.
Instrument and equipment: API4000 LC-MS/MS
Chromatographic column: Waters XBridge C18(2.1×50 mm, […])
Rat blood collection: Animals were fixed. The animal's tail was heated with a water bathtub 10 minutes before each time point. About 200 μL of the blood was collected through the caudal vein. After the blood collection, the blood was placed in an anticoagulation tube containing heparin sodium. The blood samples were centrifuged at 8000 rpm for 6 minutes at 4° C. to obtain plasma samples. The plasma must be prepared within 30 minutes after the blood collection. The plasma was stored in a refrigerator at −80° C. before the test.
(1) Test samples were removed from the refrigerator (−80° C.), naturally thawed at room temperature, and then vortexed for 5 minutes;
(2) 20 μL sample was precisely pipetted to a 1.5 mL centrifuge tube;
(3) 200 μL of the internal standard solution was added;
(4) The mixture was vortexed for 5 minutes and centrifuged for 5 minutes (12000 revolutions per minute);
(5) 100 μL of the supernate was precisely pipetted, 100 μL of water was added, the mixture was vortexed for 5 minutes, and the sample was sent to LC-MS/MS for analysis.
The results of the concentrations of the test samples (plasma samples) were output with Analyst 1.6.1 of AB Corporation. The meaning value, the standard deviation, the coefficient of variation, and other parameters (not necessary to calculate the parameter that can be directly output from Analyst 1.6.1) were calculated with Microsoft Excel, and the PK parameter is calculated with Pharsight Phoenix 6.1 software.

[4] = system: polymyxin-resistant mcr-1 positive Enterobacteriaceae; test: In vitro antibacterial effect on polymyxin-resistant mcr-1 positive Enterobacteriaceae, agar dilution MIC (Experiment 2); format: cell-based, Escherichia coli
Protocol: Tested samples: the compounds of the present invention, prepared according to the methods of the preparation examples;
Polymyxin E sulphate, Ampicillin, Cefotaxime, Gentamicin, Ciprofloxacin, Tetracycline, and Bactrim were all commercial products, the following experiments were carried out according to the content of an effective ingredient in each commercial product.
Tested strains: Escherichia coli carrying mcr-1 gene isolated from animals and Escherichia coli ATCC25922, a quality control strain, were provided by South China Agricultural University.
With reference to the agar dilution method in CLSI, the MIC value of the tested drugs to the polymyxin resistant mcr-1 positive Escherichia coli were determined.
Preparation of drug-containing agar plates: a drug solution with the highest concentration was prepared for each compound; the drug solution with the highest concentration was subjected to the double dilution; for each of dilution gradient, 1 mL (20×drug working solution) of the drug solution was added to 19 mL MH agar at 45-50° C.; immediately after addition, the agar and the drug solution were uniformly mixed to give a drug-containing agar plate with final concentrations of […], and the plate was solidified for later use; and in the meanwhile, a growth control group was arranged.
Inoculum preparation and culture: the strains stored at −80° C. were rejuvenated and formulated with broth so that the turbidity reached or exceeded 0.5 #McFarland unit; a 96-well plate was used as the inoculation tank, and the bacterial solution was diluted with sodium chloride injection so that the content of bacteria inoculated on the agar was 10^4 CFU/point. A multi-point inoculation instrument was used to inoculate the bacterial solution to the surface of the labeled drug-containing agar. After the water in the inoculation point was completely absorbed by the agar, the plate was placed upside down in a 37° C. constant-temperature incubator and incubated for 16-20 hours.

[5] = agar dilution (Table 3), read-out: MIC50
[6] = agar dilution (Table 3), read-out: MIC90

SMILES	MIC50 (Klebsiella pneumoniae; agar dilution, read-out: MIC50)	MIC90 (Klebsiella pneumoniae; agar dilution, read-out: MIC90)	MIC50 (Pseudomonas aeruginosa [1]; [5])	MIC90 (Pseudomonas aeruginosa [1]; [6])	MIC50 (Escherichia coli)	MIC90 (Escherichia coli)	MIC50 (Pseudomonas aeruginosa [2])	MIC90 (Pseudomonas aeruginosa [2]; read-out: MIC90)	AUC(0-t) ([3]; 2 mg/kg)	AUC(0-inf) ([3]; 2 mg/kg)	Cl_obs [3]	Vz_obs [3]	t1/2z [3]	λ_z [3]	other results
CC(O)[C@H](NC(=O)c1ccc(C#CC#Cc2ccc(CO)o2)cc1)C(=O)NO (stereo in doubt) [Compound 6, N-((2S,3R)-3-hydroxy-1-(hydroxyamino)-1-oxobutan-2-yl)-4-((5-(hydroxymethyl)furan-2-yl)buta-1,3-diynyl)benzamide]	1 µg/mL (≈ 2.62 µM)	1 µg/mL (≈ 2.62 µM)	0.25 µg/mL (≈ 0.654 µM)	1 µg/mL (≈ 2.62 µM)	0.125 µg/mL (≈ 0.327 µM)	0.125 µg/mL (≈ 0.327 µM)	0.5 µg/mL (≈ 1.31 µM)	1 µg/mL (≈ 2.62 µM)	4000 ± 442 ng·h/mL	4010 ± 443 ng·h/mL					Cl_obs ([3]; 2 mg/kg): 8.33 ± 1 mL/min/kg; Vz_obs ([3]; 2 mg/kg): 0.46 ± 0.14 L/kg; t1/2z ([3]; 2 mg/kg): 37.2 ± 7.2 min; λ_z ([3]; 2 mg/kg): 1.14 ± 0.21 h⁻¹; MIC90 ([4]; Escherichia coli, read-out: MIC90 Value, polymyxin-resistant mcr-1 positive Escherichia coli, agar dilution): 1 µg/mL (≈ 2.62 µM); MIC90 Value ([4]; polymyxin-resistant mcr-1 positive Escherichia coli, agar dilution): 0.5 µg/mL (≈ 1.31 µM)
C[C@@H](O)[C@H](NC(=O)c1ccc(C#CC#Cc2ccc(CO)n2C)cc1)C(=O)NO [Compound 33, N-((2S,3R)-3-hydroxy-1-(hydroxamino)-1-oxobutan-2-yl)-4-((5-(hydroxymethyl)-1-methyl-1H-pyrrol-2-yl)buta-1,3-diynyl)benzamide]					0.125 µg/mL (≈ 0.316 µM)	0.125 µg/mL (≈ 0.316 µM)			666 ± 318 ng·h/mL	671 ± 315 ng·h/mL	56.5 ± 22.3 mL/min/kg	1.21 ± 0.34 L/kg	15.6 ± 2.4 min	2.75 ± 0.50 h⁻¹	MIC50 (Klebsiella pneumoniae): 0.5 µg/mL (≈ 1.26 µM); MIC90 (Klebsiella pneumoniae): 1 µg/mL (≈ 2.53 µM); MIC50 (Pseudomonas aeruginosa [1]): 1 µg/mL (≈ 2.53 µM); MIC90 (Pseudomonas aeruginosa [1]): 8 µg/mL (≈ 20.2 µM)
C[C@@H](O)[C@H](NC(=O)c1ccc(C#CC#Cc2ccc(CO)s2)cc1)C(=O)NO [Compound 41, N-((2S,3R)-3-hydroxy-1-(hydroxyamino)-1-oxobutan-2-yl)-4-((5-(hydroxymethyl)thienyl-2-yl)buta-1,3-diynyl)benzamide]	0.125 µg/mL (≈ 0.314 µM)	0.25 µg/mL (≈ 0.627 µM)	0.25 µg/mL (≈ 0.627 µM)	1 µg/mL (≈ 2.51 µM)					1590 ± 447 ng·h/mL	1590 ± 446 ng·h/mL	22 ± 5.5 mL/min/kg	0.61 ± 0.20 L/kg	19.2 ± 2.4 min	2.21 ± 0.29 h⁻¹	MIC50 (Escherichia coli; agar dilution, read-out: MIC50): ≤ 0.03 µg/mL; MIC90 (Escherichia coli; agar dilution, read-out: MIC90): 0.06 µg/mL (≈ 0.151 µM)
C[C@@H](O)[C@H](NC(=O)c1ccc(C#CC#Cc2ccc(CO)cc2)cc1)C(=O)NO [Compound C]							4 µg/mL (≈ 10.2 µM)	> 16 µg/mL							MIC90 (Pseudomonas aeruginosa [2]): >16 µg/mL
